Values of other authors in patent US8133904B2, “Cannabinoid receptor antagonists/inverse agonists useful for treating obesity” (Jenrin Discovery, Inc., priority 2007, dated 2012).

Conditions: patients with type 2 diabetes not treated with other anti-diabetic medications; after six months of treatment; baseline value 7.9

For Cc1c(C(=O)NN2CCCCC2)nn(-c2ccc(Cl)cc2Cl)c1-c1ccc(Cl)cc1 [rimonabant], the HbA1c levels lowered is listed as 0.8%.
